According to paper PMC12155096 (International Journal of Molecular Sciences, 2025):
Like-named read-outs stand apart in the source and are kept apart here.

Experiments:
human CYP1A2 = biological target: T1, human CYP1A2 (Homo sapiens, UniProt P05177)
T1 sequence (P05177 1-516): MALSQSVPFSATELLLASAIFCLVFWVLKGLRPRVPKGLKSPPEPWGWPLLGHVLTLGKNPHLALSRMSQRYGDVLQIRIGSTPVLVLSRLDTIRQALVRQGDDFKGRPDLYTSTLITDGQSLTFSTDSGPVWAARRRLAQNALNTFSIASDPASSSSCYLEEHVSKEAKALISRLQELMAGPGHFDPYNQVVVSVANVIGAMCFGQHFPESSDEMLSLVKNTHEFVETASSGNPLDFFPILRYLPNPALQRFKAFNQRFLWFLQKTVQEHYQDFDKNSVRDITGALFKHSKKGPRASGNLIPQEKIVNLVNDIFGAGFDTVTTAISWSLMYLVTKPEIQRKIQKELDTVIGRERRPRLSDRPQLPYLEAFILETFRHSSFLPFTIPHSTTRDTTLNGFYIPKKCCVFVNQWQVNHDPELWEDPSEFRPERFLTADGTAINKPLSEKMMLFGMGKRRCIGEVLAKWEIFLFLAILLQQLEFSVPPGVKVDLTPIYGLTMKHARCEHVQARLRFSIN

human CYP2C19 = human CYP2C19 (Homo sapiens, UniProt P33261)
human CYP2D6 = human CYP2D6 (Homo sapiens, UniProt P10635)
human CYP2C9 = human CYP2C9 (Homo sapiens, UniProt P11712)
[1] = biological target: Photinus pyralis (firefly) luciferase (Photinus pyralis, UniProt P08659); assay: biochemical; format: biochemical
CYP3A4 = CYP3A4 (Homo sapiens, UniProt P08684)
[2] = read-out: Luciferase IC50 (half-maximal inhibitory concentration)

Sequence of Photinus pyralis (firefly) luciferase (P08659 whole entry): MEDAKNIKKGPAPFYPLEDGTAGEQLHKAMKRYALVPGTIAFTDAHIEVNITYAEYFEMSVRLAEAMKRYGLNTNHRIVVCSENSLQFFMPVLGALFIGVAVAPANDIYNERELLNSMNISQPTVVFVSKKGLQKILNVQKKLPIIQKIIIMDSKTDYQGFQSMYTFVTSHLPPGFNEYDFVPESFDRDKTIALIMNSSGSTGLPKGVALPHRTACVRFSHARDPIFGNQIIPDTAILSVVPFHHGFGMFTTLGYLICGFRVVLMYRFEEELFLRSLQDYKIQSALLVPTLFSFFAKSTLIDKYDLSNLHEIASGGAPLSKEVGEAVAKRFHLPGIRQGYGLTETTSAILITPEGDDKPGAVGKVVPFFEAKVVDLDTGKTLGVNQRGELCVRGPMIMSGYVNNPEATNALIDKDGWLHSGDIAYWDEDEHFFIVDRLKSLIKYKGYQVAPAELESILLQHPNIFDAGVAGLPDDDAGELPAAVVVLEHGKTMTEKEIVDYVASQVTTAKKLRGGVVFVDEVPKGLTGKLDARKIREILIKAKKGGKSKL
Sequence of human CYP2C9 (P11712 whole entry): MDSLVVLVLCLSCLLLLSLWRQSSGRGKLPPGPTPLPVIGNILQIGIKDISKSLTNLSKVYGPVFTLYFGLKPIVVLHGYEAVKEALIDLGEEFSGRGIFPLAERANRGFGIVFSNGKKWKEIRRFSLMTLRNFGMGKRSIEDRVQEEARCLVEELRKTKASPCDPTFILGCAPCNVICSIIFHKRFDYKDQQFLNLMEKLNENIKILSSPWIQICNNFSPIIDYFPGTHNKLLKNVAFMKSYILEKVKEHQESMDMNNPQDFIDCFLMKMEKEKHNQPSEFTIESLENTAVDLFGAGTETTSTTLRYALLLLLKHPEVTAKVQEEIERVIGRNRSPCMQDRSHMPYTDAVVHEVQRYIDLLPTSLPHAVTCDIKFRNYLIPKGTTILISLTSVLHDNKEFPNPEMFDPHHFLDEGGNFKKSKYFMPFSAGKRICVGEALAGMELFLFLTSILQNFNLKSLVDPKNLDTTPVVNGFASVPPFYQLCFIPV
Sequence of human CYP2D6 (P10635 whole entry): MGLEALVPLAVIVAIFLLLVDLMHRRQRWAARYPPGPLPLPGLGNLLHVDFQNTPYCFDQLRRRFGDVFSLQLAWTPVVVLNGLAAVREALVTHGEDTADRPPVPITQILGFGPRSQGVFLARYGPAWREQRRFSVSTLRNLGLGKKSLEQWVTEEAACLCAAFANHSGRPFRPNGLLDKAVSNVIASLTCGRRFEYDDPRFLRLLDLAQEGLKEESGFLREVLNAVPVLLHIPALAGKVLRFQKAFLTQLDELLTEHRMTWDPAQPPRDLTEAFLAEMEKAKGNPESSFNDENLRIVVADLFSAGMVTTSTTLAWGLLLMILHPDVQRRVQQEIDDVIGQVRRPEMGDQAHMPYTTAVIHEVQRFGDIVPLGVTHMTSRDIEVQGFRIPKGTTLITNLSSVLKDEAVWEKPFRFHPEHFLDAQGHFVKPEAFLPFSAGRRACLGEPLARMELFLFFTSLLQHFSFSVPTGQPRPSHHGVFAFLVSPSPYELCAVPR
Sequence of human CYP2C19 (P33261 whole entry): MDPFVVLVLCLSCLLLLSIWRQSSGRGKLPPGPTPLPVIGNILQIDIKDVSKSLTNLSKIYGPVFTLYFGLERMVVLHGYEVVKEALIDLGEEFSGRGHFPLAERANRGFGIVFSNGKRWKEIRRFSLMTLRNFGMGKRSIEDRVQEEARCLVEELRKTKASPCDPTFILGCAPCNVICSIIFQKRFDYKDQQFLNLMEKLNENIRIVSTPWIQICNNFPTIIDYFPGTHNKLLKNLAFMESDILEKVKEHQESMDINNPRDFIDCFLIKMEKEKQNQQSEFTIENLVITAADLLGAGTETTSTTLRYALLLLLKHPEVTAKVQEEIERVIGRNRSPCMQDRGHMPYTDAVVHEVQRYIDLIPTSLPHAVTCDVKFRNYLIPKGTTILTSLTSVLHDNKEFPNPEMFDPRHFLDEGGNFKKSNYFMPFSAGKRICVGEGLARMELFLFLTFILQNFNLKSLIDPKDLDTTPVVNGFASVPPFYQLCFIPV
Sequence of CYP3A4 (P08684 whole entry): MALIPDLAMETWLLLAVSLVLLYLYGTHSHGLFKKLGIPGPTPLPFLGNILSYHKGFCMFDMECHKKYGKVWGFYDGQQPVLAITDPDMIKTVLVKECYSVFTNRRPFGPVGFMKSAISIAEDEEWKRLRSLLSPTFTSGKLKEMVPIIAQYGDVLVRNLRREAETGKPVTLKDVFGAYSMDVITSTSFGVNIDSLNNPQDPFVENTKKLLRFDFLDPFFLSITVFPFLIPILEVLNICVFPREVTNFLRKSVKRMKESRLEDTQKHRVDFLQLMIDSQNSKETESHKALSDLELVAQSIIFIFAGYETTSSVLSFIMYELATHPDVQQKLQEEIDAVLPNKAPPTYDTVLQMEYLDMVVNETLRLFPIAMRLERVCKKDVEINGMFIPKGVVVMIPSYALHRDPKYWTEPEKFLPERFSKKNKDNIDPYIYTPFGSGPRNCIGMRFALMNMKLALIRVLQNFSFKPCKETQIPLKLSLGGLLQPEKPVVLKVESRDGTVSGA

Compound | IC50 (human CYP2D6) [µM] | IC50 (human CYP2C9) [µM] | Luciferase IC50 (half-maximal inhibitory concentration) [1] | IC50 (human CYP1A2) [µM] | CYP2D6 Efficacy (human CYP2D6) | IC50 (human CYP2C19) [µM] | IC50 (CYP3A4) [µM] | further results
CCOC(CN1CCN(CC(C)C(=O)c2ccccc2)CC1)c1ccccc1.Cl.Cl (stereo not shown) [Eprazinone dihydrochloride] | 0.2 | 11.5 | Inactive |  |  |  |  | CYP1A2 IC50 (half-maximal inhibitory concentration) (human CYP1A2): Inactive; CYP2C19 IC50 (half-maximal inhibitory concentration) (human CYP2C19): Inactive; AC50 (human CYP2D6): 0.2 µM; AC50 (human CYP2C9): 11.5 µM; AC50 (CYP3A4): 15.2 µM; CYP3A4 IC50 (half-maximal inhibitory concentration) (CYP3A4): 15.16 ± 1.74 (64 ± 2) µM
CCc1cc(Cl)c(OC)c(C(=O)NC[C@@H]2CCCN2CC)c1O.Cl [Eticlopride hydrochloride] |  |  | Inactive | 13.5 | 0.67 ± 0.09 (-96 ± 1) % |  |  | CYP2C19 IC50 (half-maximal inhibitory concentration) (human CYP2C19): Inactive; CYP2C9 IC50 (half-maximal inhibitory concentration) (human CYP2C9): Inactive; CYP3A4 IC50 (half-maximal inhibitory concentration) (CYP3A4): Inactive
Cc1[nH]cnc1C[C@H]1CCc2c(C)c3ccccc3n2C1=O.Cl [Fabesetron hydrochloride] |  |  | Inactive | 1.56 | 3.52 ± 0.74 (-103 ± 4) % | 1.67 | 1.89 | CYP2C9 Efficacy (human CYP2C9): 0.51 ± 0.09 (-90 ± 4) %
O=S(=O)(Oc1ccc(Cl)cc1)c1ccccc1 [Fenson] | 35.7 | 34.3 |  | 5.64 | 35.73 ± 4.11 (-62 ± 14) % | 0.78 |  | CYP1A2 Efficacy (human CYP1A2): 5.64 ± 0.00 (-100 ± 5) %; CYP1A2 Efficacy (in parenthesis) (human CYP1A2): 5.64 ± 0 (-100 ± 5) %; CYP2C19 Efficacy (human CYP2C19): 0.78 ± 0.29 (-135 ± 6) %; CYP2C19 Efficacy (in parenthesis) (human CYP2C19): 0.78 ± 0.29 (-135 ± 6) %; AC50 (human CYP2D6): 35.7 µM; AC50 (human CYP2C9): 34.3 µM; CYP2C9 Efficacy (human CYP2C9): 34.28 ± 2.23 (-89 ± 7) %; Luciferase Efficacy (in parenthesis) [1]: 76.75 ± 5.00 (-30 ± 10) %; IC50 [1, 2]: 76.8 µM; AC50 (CYP3A4): 6.61 µM; CYP3A4 Efficacy (in parenthesis) (CYP3A4): 6.61 ± 0.84 (131 ± 4) %; CYP3A4 IC50 (half-maximal inhibitory concentration) (CYP3A4): 6.61 ± 0.84 (131 ± 4) µM
CCOC(=O)c1ccc(OC(=O)CCCCCN=C(N)N)cc1.CS(=O)(=O)O [Gabexate mesilate] |  |  | Inactive | 20.1 | 0.27 ± 0.04 (-102 ± 4) % | 10.3 |  | CYP1A2 Efficacy (human CYP1A2): 20.14 ± 4.79 (-49 ± 20) %; CYP2C19 Efficacy (human CYP2C19): 10.33 ± 4.77 (-82 ± 30) %; AC50 (human CYP2D6): 0.27 µM; AC50 (human CYP2C9): 10.3 µM; CYP2C9 Efficacy (human CYP2C9): 10.33 ± 4.77 (82 ± 30) %; AC50 (CYP3A4): 21.2 µM; CYP3A4 IC50 (half-maximal inhibitory concentration) (CYP3A4): 21.25 ± 8.41 (37 ± 5) µM
CC[C@H]1C[C@@H]2C[C@H]3c4[nH]c5ccc(OC)cc5c4CCN(C2)[C@@H]13.Cl [Ibogaine hydrochloride] |  |  | Inactive | 61.5 | 0.76 ± 0.1 (-105 ± 7) % | 83.1 | 32.5 | CYP2C9 Efficacy (human CYP2C9): 44.07 ± 15.72 (-45 ± 10) %
CC(C)C[C@H]1[C@@H](c2ccccc2)OC(=O)N1CCCN1CCCCCC1.Cl [Ipenoxazone hydrochloride] |  |  |  |  | 0.44 ± 0.1 (-105 ± 4) % | 2.3 | 0.88 | CYP1A2 IC50 (human CYP1A2): Inactive; CYP2C9 IC50 (human CYP2C9): Inactive; Luciferase IC50 [1]: Inactive
Cc1oc(=O)oc1COC(=O)[C@@H]1N2C(=O)[C@@H](NC(=O)[C@H](N)c3ccccc3)[C@H]2SC1(C)C.Cl [Lenampicillin hydrochloride] |  | 41.3 | Inactive |  |  |  | 0.62 | CYP1A2 IC50 (half-maximal inhibitory concentration) (human CYP1A2): Inactive; CYP2C19 IC50 (half-maximal inhibitory concentration) (human CYP2C19): Inactive; CYP2D6 IC50 (half-maximal inhibitory concentration) (human CYP2D6): Inactive
O=S(=O)([O-])C(F)(F)C(F)(F)C(F)(F)C(F)(F)C(F)(F)C(F)(F)C(F)(F)C(F)(F)F.[Li+] [Lithium perfluorooctane sulfonate] |  | 0.48 | Inactive |  |  | 86.1 |  | CYP1A2 IC50 (half-maximal inhibitory concentration) (human CYP1A2): Inactive; CYP2D6 IC50 (half-maximal inhibitory concentration) (human CYP2D6): Inactive; CYP3A4 IC50 (half-maximal inhibitory concentration) (CYP3A4): Inactive
CN1[C@@H]2CCC(C)(C)[C@H]1C[C@H](OC(=O)C(O)(c1cccs1)c1cccs1)C2 [Mazaticol] | 14.4 |  | Inactive |  |  |  | 0.22 | CYP1A2 IC50 (half-maximal inhibitory concentration) (human CYP1A2): Inactive; CYP2C19 IC50 (half-maximal inhibitory concentration) (human CYP2C19): Inactive; CYP2C9 IC50 (half-maximal inhibitory concentration) (human CYP2C9): Inactive
CCOC(=O)c1c(C)n(C)c2ccc(O)cc12 [Mecarbinate] | 17.9 | 12.9 | Inactive | 0.54 |  | 7.23 | 5.97 | 
[Cl][Hg][Cl] [Mercuric chloride] | 1.61 | 0.47 |  | 5.66 |  | 0.77 | 2.25 | IC50 ([1]; read-out: Luciferase IC50): 11 µM
CC(=O)[O-].CC(=O)[O-].[Hg+2] [Mercury(II) acetate] | 1.08 | 0.5 |  | 4.19 |  | 0.91 | 2.86 | CYP1A2 Efficacy (in parenthesis) (human CYP1A2): 4.19 ± 0.75 (-100 ± 9) %; CYP2C19 Efficacy (in parenthesis) (human CYP2C19): 0.91 ± 0.47 (-137 ± 5) %; CYP2D6 Efficacy (in parenthesis) (human CYP2D6): 1.08 ± 0.07 (-72 ± 4) %; CYP2C9 Efficacy (in parenthesis) (human CYP2C9): 0.5 ± 0.06 (-104 ± 2) %; Luciferase Efficacy (in parenthesis) [1]: 6.84 ± 0.45 (-85 ± 7) %; IC50 [1, 2]: 6.84 µM; CYP3A4 Efficacy (in parenthesis) (CYP3A4): 2.86 ± 0.53 (-93 ± 1) %
[I][Hg][I] [Mercury(II) iodide] | 1.67 | 0.54 |  | 3.7 |  | 1.04 | 2.53 | IC50 ([1]; read-out: Luciferase IC50): 5.25 µM
COc1cc(Cl)ccc1Oc1ccc(Cl)cc1Cl [Methyl triclosan] |  | 12 |  | 15.1 |  | 0.72 | 70.2 | CYP2D6 IC50 (human CYP2D6): Inactive; IC50 ([1]; read-out: Luciferase IC50): 48.9 µM
COC(=O)c1cncn1C(C)c1ccccc1.Cl (stereo not shown) [Metomidate hydrochloride] | 5.65 | 34 | Inactive |  |  | 4.05 | 0.25 | CYP1A2 IC50 (half-maximal inhibitory concentration) (human CYP1A2): Inactive
CCCN(CCC)CCc1c[nH]c2ccccc12.Cl [N,N-Dipropyltryptamine hydrochloride] | 0.31 |  |  | 20.8 |  | 65.9 |  | CYP2C9 IC50 (human CYP2C9): Inactive; Luciferase IC50 [1]: Inactive; CYP3A4 IC50 (CYP3A4): Inactive
Cc1ccc([N+](=O)[O-])[c]2c1[O][Hg]2 [Nitromersol] | 0.78 | 0.87 |  | 4.36 |  | 1.28 | 8.08 | CYP1A2 Efficacy (in parenthesis) (human CYP1A2): 4.36 ± 1.13 (-86 ± 7) %; CYP2C19 Efficacy (in parenthesis) (human CYP2C19): 1.28 ± 0.79 (-139 ± 25) %; CYP2D6 Efficacy (in parenthesis) (human CYP2D6): 0.78 ± 0.09 (-101 ± 2) %; CYP2C9 Efficacy (in parenthesis) (human CYP2C9): 0.87 ± 0 (-104 ± 2) %; Luciferase Efficacy (in parenthesis) [1]: 12.48 ± 4.81 (-100 ± 9) %; IC50 [1, 2]: 12.5 µM; CYP3A4 Efficacy (in parenthesis) (CYP3A4): 8.08 ± 0.55 (-86 ± 6) %
CN1CCN(C2Cc3ccccc3Sc3ccc(Cl)cc32)CC1.O=C(O)/C=C\C(=O)O (stereo not shown) [Octoclothepine maleate] | 0.26 | 30.6 |  | 28.3 |  | 11.5 | 2.28 | Luciferase IC50 [1]: Inactive
